# From PubChem BioAssay (NCI)
#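 Interpolation was linear, between the two tested concentrations surrounding the appropriate level; five concentrations were tested over 48 hours in 96-well plates. TGI denotes the concentration required for complete inhibition of growth.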
# Columns and labels:
# Assay in all cases: DTP human tumour cell line panel, 48 h
# ACHN renal = tested on: ACHN renal
# CCRF-CEM leukemia = tested on: CCRF-CEM leukemia
# DMS 273 small cell lung = tested on: DMS 273 small cell lung
# M19-MEL melanoma = tested on: M19-MEL melanoma
# MOLT-4 leukemia = tested on: MOLT-4 leukemia
# SNB-75 CNS = tested on: SNB-75 CNS
# TK-10 renal = tested on: TK-10 renal
# NCI-H460 lung = tested on: NCI-H460 lung
# OVCAR-4 ovarian = tested on: OVCAR-4 ovarian
# DU-145 prostate = tested on: DU-145 prostate
SMILES,TGI (ACHN renal),TGI (CCRF-CEM leukemia),TGI (DMS 273 small cell lung),TGI (M19-MEL melanoma),TGI (MOLT-4 leukemia),TGI (SNB-75 CNS),TGI (TK-10 renal),TGI (NCI-H460 lung),TGI (OVCAR-4 ovarian),TGI (DU-145 prostate)
COc1ccc2c(C(=O)O)cc3ccccc3c2c1OC,29.8 µM,88.4 µM,53.4 µM,61 µM,> 100 µM,> 100 µM,33.2 µM,–,–,–
Cc1ccccc1C(CCCO)C(=O)O (stereo not drawn),> 100 µM,> 100 µM,> 100 µM,> 100 µM,> 100 µM,> 100 µM,> 100 µM,> 100 µM,> 100 µM,–
CCOC(=O)C1=C(NC)OCC1=O,> 100 µM,> 100 µM,> 100 µM,> 100 µM,–,> 100 µM,> 100 µM,> 100 µM,> 100 µM,–
CC(=O)Nc1ccc(C2CC(c3ccc([N+](=O)[O-])cc3)=Nc3ccccc3S2=O)cc1 (stereo not drawn),51.8 µM,31.8 µM,35.8 µM,38 µM,32.8 µM,> 100 µM,64.7 µM,47.9 µM,39.8 µM,–
O=C(NCCc1ccccc1)C1C(=O)C(=O)N(CCc2ccccc2)C1=O (stereo not drawn),> 100 µM,> 100 µM,> 100 µM,> 100 µM,> 100 µM,> 100 µM,> 100 µM,–,–,–
CC12OC(=O)C(C#N)C1(C)C1C(=O)CCCC12 (stereo not drawn),> 100 µM,> 100 µM,> 100 µM,> 100 µM,> 100 µM,> 100 µM,> 100 µM,> 100 µM,> 100 µM,–
N#Cc1ccc(Sc2nc3ccccc3[nH]2)cc1,> 100 µM,> 100 µM,> 100 µM,> 100 µM,> 100 µM,–,> 100 µM,> 100 µM,> 100 µM,–
O=C1C2C3C=CC(C2C(=O)N1CO)C1C2C(=O)N(CO)C(=O)C2C31 (stereo not drawn),> 66.6 µM,> 59.3 µM,> 59.1 µM,> 100 µM,> 100 µM,> 100 µM,> 100 µM,> 54.5 µM,> 64.7 µM,–
COc1ccc2nc(NC(=O)C(=O)CC(=O)c3ccc([N+](=O)[O-])cc3)sc2c1,> 100 µM,> 100 µM,> 100 µM,> 100 µM,> 100 µM,> 100 µM,–,> 100 µM,> 100 µM,–
NC(N)=NCCCC(NCc1c2ccccc2nc2ccccc12)C(=O)O (stereo not drawn),> 100 µM,75.1 µM,> 100 µM,> 100 µM,45 µM,> 100 µM,> 100 µM,> 100 µM,> 84.7 µM,> 100 µM
COc1cc(/C=C2\NC(=O)C(Cc3cc(OC)c(OC)c(C)c3OC)N(C(C)=O)C2=O)c(OC)c(C)c1OC (stereo not drawn),> 100 µM,> 100 µM,> 100 µM,> 100 µM,> 100 µM,> 100 µM,> 100 µM,> 100 µM,> 100 µM,–
O=[N+]([O-])c1ccc(-c2ccc(C3=Nn4c(CNc5ccccc5Cl)nnc4SC3)o2)cc1,> 100 µM,–,> 100 µM,> 100 µM,> 100 µM,> 100 µM,> 100 µM,> 100 µM,–,–
CC1NOC(=O)C1N=Nc1ccc(Cl)cc1Cl (stereo not drawn),55.5 µM,> 100 µM,56.8 µM,64.3 µM,50.7 µM,46.5 µM,62.7 µM,59.5 µM,56.5 µM,–
C[C@H](C(=O)O)C(=O)NC(=O)N(Cc1ccccc1)N=O,> 100 µM,> 100 µM,> 100 µM,> 100 µM,> 100 µM,> 100 µM,> 100 µM,> 100 µM,> 100 µM,–
